What was measured:
xylem = assay: Phytoinjector delivery to xylem of tomato, dye transport
Description: Based on these parameters, phytoinjectors were designed with a tip diameter smaller than 35 μm and 10 μm for xylem and phloem, respectively (FIG. 1B, FIG. 13C and FIG. 13D). […] To investigate payload delivery in planta, each payload was loaded to phytoinjectors at the point of material assembly before drying. […] The injected petioles were sliced along the transverse section downstream and upstream at various distances from the injection site to investigate the presence of the delivered dyes. […] In xylem, transport analysis was conducted by tangential sectioning of the stem (FIG. 3E). […] To quantify payloads transport, the fluorescence intensity was integrated (see FIG. 3E). The normalized intensity distribution evolves spatially and temporally (FIG. 3F).

petiole's xylem = assay: Luciferin-luciferase bioluminescent reaction after phytoinjector delivery into petiole xylem; format: in vivo, tomato (Solanum lycopersicum); settings: luciferin in petiole's xylem; other reagents by foliar infiltration
Description: The phytoinjectors were applied in petiole vasculature near the leaflet to facilitate observation and imaging. At first, luciferin was deployed in the petiole's xylem while the other reagents were delivered by foliar infiltration to the leaf.

## 5(6)-carboxyfluorescein diacetate
xylem
  transport distance upstream of injection site: 1 cm
xylem; from root to leaves
  transport distance downstream of injection site: more than 7 cm

## O=C(O)[C@H]1CSC(c2nc3ccc(O)cc3s2)=N1 [luciferin]
petiole's xylem
  luminescence of leaf tissue after delivery: showed luminescence
